Data taken from US20250041461A1, “[177LU] LUTETIUM-PSMA I&T COMPOSITION AND DOSIMETRY, KIT, METHOD OF MAKING, AND METHOD OF USING THEREOF” (Curium US LLC, priority 2023, published 2025).

Tests used:
prostate cancer = settings: in vivo; cited from earlier work
[1] = Radiochemical purity of formulated ^177Lu-PSMA I&T solution by HPLC (stability over time); format: physicochemical
Experimental: pH was estimated by pH paper. Radioactivity was measured in a dose calibrator. Radiochemical purity was determined by liquid chromatography with radioactivity detection and thin layer chromatography.
Radiochemical impurities are quantified by chromatographical methods (HPLC and TLC). Radiochemical purity determined by HPLC must not be less than 95.0%
The radiochemical purity and chemical properties (pH, impurities, visual properties) of [^177Lu]Lu-PSMA I&T in the formulation composition 3 were tested on the seven batches over a time span of 70 to 72 hours from the end-of-synthesis time. Stability samples of typical therapeutic dose radioactivity and volume were stored in different conditions covering typical storage, shipment and usage of the product, including temperatures ranging from +5° C. to +40° C.
Radiochemical purity of each solution was followed by HPLC up to 71-93 hours post-radiolabeling. All solutions were stored at 22.5° C.
Sample Analysis: The pH, radioactivity concentration (RAC), PSMA I&T content, and radiochemical purity (RCP) of the formulations were determined using a variety of analytical techniques described in the following sub-sections. A detailed record of the steps performed for each analysis can be found in Attachment 1-4.
Both the determination of the assay for PSMA I&T and related substances and the RCP of the formulations were determined via HPLC analysis. The system suitability of the instrument was established by triplicate injections of a 15 ppm PSMA I&T standard prior to sample analysis and a single 15 ppm check standard every 10 sample injections. A five-point standard curve of PSMA I&T concentrations between 0.5 and 25 ppm was used to determine the PSMA I&T concentration in the formulations.

[2] = numerous studies; cited from earlier work
[3] = Eclipse sub-study, cycle 3 dosimetry (16 patients); format: in vivo, human; settings: cycle 3, 16 patients
Experimental: To evaluate potential changes in the tracer's kinetics and uptake after multiple treatment cycles, 16 of the 27 patients included in the dosimetry sub study, were imaged at both cycle 1 and cycle 3. Among these, at cycle 3, three patients were imaged at all 4 timepoints and the other 13 were imaged at one or two timepoints only (24 h, 48 h or both 24 h and 48 h) (Table 7 in Appendix 1). For these 13 patients, the TACs obtained at cycle 1 were used for each source organ and scaled to the normalized activity value(s) measured at Cycle 3. For patients imaged at two timepoints, the TACs were preferably scaled using the average scaling factor between the two timepoints.
A subgroup of 16 out of the 27 patients underwent and additional dosimetry assessment at Cycle 3. Among these, three patients had dosimetry performed based on images taken at 4 timepoints, while the remaining patients had dosimetry performed at 1 or 2 imaging timepoints only, as described in Section 4.4.1.
The organ absorbed radiation doses were compared to the mean organ absorbed radiation doses from Cycle 1 for the same subset of patients, as shown in Table 5. The dosimetry estimations obtained at cycle 3 align closely with those from cycle 1. At this timepoint, the kidneys had the highest dose (0.49±0.19 Gy/GBq) but, for most organs, the estimated absorbed dose values were similar to or lower compared to cycle 1. […]

O=C([O-])CC[C@H](NC(=O)N[C@@H](CCCCNC(=O)CCCCCCC(=O)NCCCC[C@@H](NC(=O)[C@@H](Cc1ccccc1)NC(=O)[C@@H](Cc1ccc(O)c(I)c1)NC(=O)CC[C@H](C(=O)[O-])N1CCN(CC(=O)[O-])CCN(CC(=O)[O-])CCN(CC(=O)[O-])CC1)C(=O)[O-])C(=O)[O-])C(=O)[O-].[177Lu+3].[H+].[H+].[H+].[H+].[H+] [^177Lu-PSMA I&T, (3S,7S,26R,29R,32R,37R)-29-benzyl-32-(4-hydroxy-3-iodobenzyl)-5,13,20,28,31,34-hexaoxo-37-(4,7,10-tris(carboxymethyl)-1,4,7,10-tetraazacyclododecan-1-yl)-4,6,12,21,27,30,33-heptaazaheptatriacontane-1,3,7,26,37-pentacarboxylic acid; lutetium-177 (III)]
adverse effects (prostate cancer): mainly transient adverse effects
radiochemical purity by HPLC ([1]; 10 ml high RAC formulation, 42.5 mg/ml ascorbic acid, 0 hours post EOS): at least 99%
radiochemical purity by HPLC ([1]; 10 ml high RAC formulation, 42.5 mg/ml ascorbic acid, 46 hours post EOS): at least 93.3%
radiochemical purity by HPLC ([1]; 20 ml low RAC formulation, 31 mg/ml ascorbic acid, 0 hours post EOS): at least 99.1%
radiochemical purity ([1]; decreased strength (0.5 GBq/mL), 72 hours post-end-of-synthesis): above 95%
radiochemical stability among the formulations of Example 3 ([1]; low RAC solution of pH 4.5 and ascorbic acid concentration of 31 mg/ml): highest radiochemical stability
safety and tolerability [2]: safe and well tolerated
absorbed dose, kidneys [3]: 0.49±0.19 Gy/GBq
